Consider five molecules from patent US20040229810A1, “Gastrin compositions and formulations, and methods of use and preparation” (priority 2002, published 2004).

Where two headings read alike, the source gives them in different places. Where a SMILES comes first, the peptide text is derived from it. Where no end group is shown, it is not given here. [ ]: non-standard residue; d: D form. pGlu = O=C1CC[C@@H](C(=O)O)N1

The conditions of data set [1]: cited from earlier work.
Data set [2] deals with NOD mice with recent onset diabetes. Description: Modified vs unmodified gastrin in combination with GLP-1 in preventing diabetes progression in NOD mice with recent onset diabetes. The class given is in vivo. Conditions: in combination with GLP-1 (100 μg/kg/day); gastrin compound 3 μg/kg/day gastrin equivalent i.p. daily for 14 days; compared to GLP-1 with native gastrin (Compound B). The text has this:
In this example, the effect of treatment by a combination of GLP-1 and unmodified gastrin and GLP-1 and modified gastrin compounds/conjugates were examined in NOD mice with recent onset diabetes, to determine whether administration of both GLP-1 and gastrin would prevent severe hyperglycemia as well as increase pancreatic insulin content in NOD mice with recent-onset diabetes. The GLP-1 used was GLP-1 which is the biologically active fragment of human/mouse GLP-1 (having residues at positions 7-36 compared to the precursor from which the fragment is processed; obtained from Bachem H6795). […]
Non-obese diabetic (NOD) female mice, ages 12-14 weeks, were monitored for development of onset of diabetes (fasting blood glucose >8.0 to 15 mmol/l), and within 48 hours after onset of symptoms, four groups of mice were each treated as follows: one group was treated with vehicle only; and the other group was administered 100 μg/kg/day of GLP-1, and the remaining groups were treated with combination of GLP-1 (100 μg/kg/day) and gastrin compound (3 μg/kg/day gastrin equivalent), each treatment administered via the intraperitoneal route daily.
Therapy was administered for 14 days. Animals were monitored weekly for fasting blood glucose (FBG) levels. FBG levels were measured at about 12 hours after food had been withdrawn, and 24 hours after the last peptide or vehicle injection. […]

A short description of data set [3]: in vivo. Conditions: male, cynomolgus monkey, iv.
Description: Male animals were used in the example. […] The dosing solutions for intravenous injection were administered as a single bolus dose via the saphenous vein at a dose volume of 1 mL/kg. A 0.2 mL saline flush was administered following dosing in order to ensure administration of the complete dose volume. The actual volume administered to each animal was based on the animal's most recent body weight.
Serial blood samples (approximately 0.5 ml per time point) were collected via the brachial or femoral vein at the following time points: 0 (pre-dose), 1, 3, 5, 10, 15, 30 minutes, 1, 2, and 4 hours post dose.
Each sample was collected into a tube containing EDTA and kept on wet ice pending centrifugation. The samples were centrifuged under refrigeration for a minimum of 10 minutes at 1, 500 g (RCF) and the resultant plasma was transferred into duplicate tubes and placed on dry ice. All samples were stored frozen for PK analysis as described below.
Gastrin in plasma samples was measured with a well established competitive radioimmunoassay for the quantitative determination of gastrin (Russell et al., Postgraduate Medical Journal 52:645, 1976). The antibody used in the assay was raised in rabbits against synthetic human gastrin I conjugated with carbodiimide to bovine serum albumin. The antigen was labeled with ^125I and the presence of the antigen:antibody reactions were detected using a gamma counter.
To calculate pharmacokinetic parameters, blood levels of gastrin at each time point for every animal were entered in to Graphpad Prism 3.0 (GraphPad Software, San Diego, Calif., USA,_www.graphpad.com).

With Gastrin-17, the circulating half-life in data set [1] (in vivo) is 5 to 9 min.

As to “gastrin-34 ([pGlu]LGPQGPPHLVADPSKKQGPWLEEEEEAYGWMDF-NH2; ends and bridges not checked; UniProt P01350 59-92, looked up)”, the circulating half-life result in data set [1] (background statement) was “about 35 mins”.

With “Compound Q: human serum albumin conjugate of N-terminal Cys gastrin peptide residues 2-17 of SEQ ID NO: 4 with (GA)5 linker (GPWLEEEEEAYGWLDF; not fully specified (N-terminus, C-terminus); ends and bridges not checked; also: human serum albumin conjugate)”, in data set [2], the “reducing blood glucose levels in diabetic animals” value is “more effecting in reducing blood glucose levels”.

In the case of “Compound E: gastrin peptide residues 2-17 of SEQ ID NO: 4 with N-terminal Cys residue, no linker (CGPWLEEEEEAYGWLDF; not fully specified (C-terminus); ends and bridges not checked)”, the “reducing blood glucose levels in diabetic animals” value in data set [2] was “more effecting in reducing blood glucose levels”.

Regarding `CC(C)C[C@H](NC(=O)[C@H](Cc1c[nH]c2ccccc12)NC(=O)CNC(=O)[C@H](Cc1ccc(O)cc1)NC(=O)[C@H](C)NC(=O)[C@H](CCC(=O)O)NC(=O)[C@H](CCC(=O)O)NC(=O)[C@H](CCC(=O)O)NC(=O)[C@H](CCC(=O)O)NC(=O)[C@H](CCC(=O)O)NC(=O)[C@H](CC(C)C)NC(=O)[C@H](Cc1c[nH]c2ccccc12)NC(=O)[C@@H]1CCCN1C(=O)CNC(=O)[C@@H]1CCC(=O)N1)C(=O)N[C@@H](CC(=O)O)C(=O)N[C@@H](Cc1ccccc1)C(N)=O` [Compound B] ([pGlu]GPWLEEEEEAYGWLDF-NH2), the AUC in data set [3] (3 ug/kg) was 4.18 ng·h/mL; in data set [3] (30 ug/kg), 42.1 ng·h/mL; in data set [3] (cynomolgus, 10 ug/kg), 15.7 ng·h/mL. The Cmax in data set [3] (3 ug/kg) came out at 27 ng/mL; in data set [3] (30 ug/kg), 268 ng/mL; in data set [3] (cynomolgus, 10 ug/kg), 127 ng/mL. Also, the Tmax in data set [3] (3 ug/kg) was 2 min; in data set [3] (30 ug/kg), 1 min; in data set [3] (cynomolgus, 10 ug/kg), 1 min. In addition, the half-life in data set [3] (3 ug/kg, t ½) was 5 min; in data set [3] (30 ug/kg, plasma t1/2) it was 4 to 5 min; in data set [3] (30 ug/kg, t ½), 5 min; in data set [3] (cynomolgus, 10 ug/kg, t ½) it was 4 min.
